# In US7261906B2, “Anti-cancer therapy agent of arsenic hexoxide (As4O6) of a natural chemical substance and its pharmaceutical composition” (priority 1998, dated 2007):
# Several values for one entry are separate records, joined by “and”; a condition that tells them apart may be missing. Equal values may be shown once.
# Key:
# [1] = tested on: colon26-M3.1 carcinoma cells; assay: Inhibitory effect of intravenously-administered HD-2 on cancer metastasis (lung); type: in vivo, mice
# Description: (§1) B16-BL6 melanoma cells or colon26-M3.1 carcinoma cells were inoculated into mice and number of metastatic tumor masses appearing in lungs was counted. […] The peak activity was observed a: 1-mg dose with very high anticancer efficacy (86%). […] This indicated oral administration of HD-2 was quite effective for treatment of established cancer.
# In this experiment, HD-2 was administered intravenously with dosage less than 500 mg/kg body weight per day.
# [2] = tested on: cloned tumor cells of mice and human beings; assay: Direct cytotoxicity of HD-2 relative to cisplatin over the clones; type: cell-based; conditions: 48 hours of incubation, mean over clones of Table 5
# Description: (§2) Cloned tumor cells of P388 leukemia, L1210 leukemia, L5178Y lymphoma, Colon26-M3.1 carcinoma, and B16-BL6 melanoma, from mice, and K562 leukemia, liver carcinoma HEP-G2, Hs578T breast cancer, AN-3-CA adenocarcinoma, DLD colon carcinoma, and HeLa epitheloid carcinoma, from human beings, were cultured in EMM, DMEM, or RMPI-1640 culture media containing 7.5% fetal bovine serum (FBS), as described in ATCC manual. […] Tumor cells in test wells were incubated in 5% CO2 incubator at 37° C. for 2 days.
# [3] = tested on: N-nitrosodiethylamine (NDEA)-induced tumors in lung and liver; assay: Carcinogen-induced oncogenesis in liver and lung; type: in vivo, mouse (B6C3F1 strain); conditions: for incidence of NDEA-induced hepatic tumor (words): oral HD-2, FIG. 6
# Description: To examine the inhibitory effect of HD-2 on carcinogen-induced oncogenesis, N-nitrosodiethylamine (NDEA) was injected as a carcinogen into peritoneal cavity of mouse (B6C3F1 strain) at a concentration of 90 mg per kg body weight to induce cancer. At 2, 4, 8, 16, and 32 weeks after carcinogen injection, […] of HD-2 was administered orally and the same amount of distilled water was injected into control group. Forty-two weeks after NDEA treatment, mice were sacrificed to measure the incidence and the size of tumors formed in lung and liver. […] The incidence of NDEA-induced hepatic tumor was above 90%, but following HD-2 administration, the incidence was lowered to 5 to 22%, despite of variation depending on the period of HD-2 administration. Thus HD-2 inhibited carcinogen-induced oncogenesis in liver by 78 to 95. […] In lung, the inhibitory effect of HD-2 on reducing carcinogen-induced oncogenesis was not so dramatic as in liver. However, if HD-2 was given at 4 weeks after NDEA injection, carcinogen-induced oncogenesis was inhibited by 30%.
# 3T3-fibroblast cells = assay: Cytotoxicity in 3T3-fibroblast cells, time course (XTT method); type: cell-based, murine
# Description: as §2
# For further study of the cytotoxicity of each substance on cloned tumor cells, 3T3-fibroblast cells were cultured in test wells as described in experiment 1.
# B16-BL6 melanoma cells = assay: Inhibitory effect of orally-administered HD-2 on cancer metastasis (lung); type: in vivo, mice
# Source text: as §1
# [4] = 1 μg intravenous administration +1
# [5] = 10 μg intravenous administration +1
# [6] = 10 μg intravenous administration +7
# [7] = 100 μg intravenous administration +1
smiles,measurement,setting,value
"O1[As]2O[As]3O[As]1O[As](O2)O3 [HD-2, arsenic hexoxide (As4O6)]",inhibitory rate,[1]; [4],66.5%
same,"number of metastatic mass, mean ± SD",[1]; [4],52 ± 28
same,inhibitory rate,[1]; [5],92.9%
same,"number of metastatic mass, mean ± SD",[1]; [5],11 ± 19
same,inhibitory rate,[1]; [6],67.5%
same,"number of metastatic mass, mean ± SD",[1]; [6],50 ± 11
same,inhibitory rate,[1]; [7],90.3%
same,"number of metastatic mass, mean ± SD",[1]; [7],15 ± 15
same,anti-metastatic efficacy,[1]; 10- to 100-μg intravenous,above 90%
same,"direct cytotoxicity, times as high as cisplatin",[2],50 times
same,incidence of NDEA-induced lung cancer,[3]; FIG. 7,decreases the incidence of lung cancer
same,inhibition of carcinogen-induced oncogenesis in lung,[3]; HD-2 given at 4 weeks after NDEA injection,30%
same,number of tumor masses in lung,"[3]; HD-2 group, FIG. 7",about 2
same,spontaneous cancers of lung,[3]; oral HD-2,completely suppressed
same,spontaneous hepatoma,[3]; oral HD-2,inhibited spontaneous hepatoma completely
same,incidence of NDEA-induced hepatic tumor (words),[3],effectively inhibited
same,incidence of NDEA-induced hepatic tumor (words),[3]; listed as As4O6,decreases hepatoma incidence
same,morphological observation of cells,"3T3-fibroblast cells; 3T3, 34 hours of treatment",complete necrosis of tumor cells
same,"cytotoxicity, times as high as that of cisplatin","3T3-fibroblast cells; 3T3, 48 hours after administration",about 270 times
same,cytotoxic effect over time (FIG. 3),"3T3-fibroblast cells; 3T3, time course after the addition, XTT",demonstrated cytotoxic effect starting from 4 hours
same,inhibitory rate,B16-BL6 melanoma cells; 0.1 mg oral administration +1,38.5%
same,"number of metastatic masses, mean ±SD",B16-BL6 melanoma cells; 0.1 mg oral administration +1,75 ± 28
same,inhibitory rate,B16-BL6 melanoma cells; 0.1 mg oral administration +7,41.4%
same,"number of metastatic masses, mean ±SD",B16-BL6 melanoma cells; 0.1 mg oral administration +7,95 ± 23
same,inhibitory rate,B16-BL6 melanoma cells; 1 mg oral administration +1,86% and 86.1%
same,"number of metastatic masses, mean ±SD",B16-BL6 melanoma cells; 1 mg oral administration +1,17 ± 9
same,inhibitory rate,B16-BL6 melanoma cells; 1 mg oral administration +7,70% and 70.4%
same,"number of metastatic masses, mean ±SD",B16-BL6 melanoma cells; 1 mg oral administration +7,48 ± 19
same,inhibitory rate,B16-BL6 melanoma cells; 10 mg oral administration +1,63.1%
same,inhibitory rate,B16-BL6 melanoma cells; 10 mg oral administration +7,66.1%
same,"number of metastatic masses, mean ±SD",B16-BL6 melanoma cells; 10 mg oral administration +7,55 ± 13
same,"number of metastatic masses, mean ±SD",B16-BL6 melanoma cells; 10 mg oral administration +1 day after inoculation,45 ± 25
same,anti-metastatic effect compared to the control group,"B16-BL6 melanoma cells; oral administration, 0.1 to 10 mg",significant anti-metastatic effect
